Reference: ChEMBL document CHEMBL5649167, “The SUV4-20 inhibitor A-196 verifies a role for epigenetics in genomic integrity” (Nat Chem Biol, 2017)
The source made the active and inactive calls. No cut-off for these calls is given here.

Key:
[1] = target: D(2) dopamine receptor (Homo sapiens) (UniProt P14416); experiment: Inhibition of human D(2) dopamine receptor expressed in stable human fibroblast cells at 10 uM relative to control; format: cell-based
[2] = target: Muscarinic acetylcholine receptor M3 (Homo sapiens) (UniProt P20309); experiment: Inhibition of human Muscarinic 3 at 10 uM relative to control
[3] = target: Sodium-dependent dopamine transporter (Homo sapiens) (UniProt Q01959); experiment: Inhibition of human Sodium-dependent dopamine transporter at 10 uM relative to control
Chain of Sodium-dependent dopamine transporter (Homo sapiens) (Q01959 whole entry): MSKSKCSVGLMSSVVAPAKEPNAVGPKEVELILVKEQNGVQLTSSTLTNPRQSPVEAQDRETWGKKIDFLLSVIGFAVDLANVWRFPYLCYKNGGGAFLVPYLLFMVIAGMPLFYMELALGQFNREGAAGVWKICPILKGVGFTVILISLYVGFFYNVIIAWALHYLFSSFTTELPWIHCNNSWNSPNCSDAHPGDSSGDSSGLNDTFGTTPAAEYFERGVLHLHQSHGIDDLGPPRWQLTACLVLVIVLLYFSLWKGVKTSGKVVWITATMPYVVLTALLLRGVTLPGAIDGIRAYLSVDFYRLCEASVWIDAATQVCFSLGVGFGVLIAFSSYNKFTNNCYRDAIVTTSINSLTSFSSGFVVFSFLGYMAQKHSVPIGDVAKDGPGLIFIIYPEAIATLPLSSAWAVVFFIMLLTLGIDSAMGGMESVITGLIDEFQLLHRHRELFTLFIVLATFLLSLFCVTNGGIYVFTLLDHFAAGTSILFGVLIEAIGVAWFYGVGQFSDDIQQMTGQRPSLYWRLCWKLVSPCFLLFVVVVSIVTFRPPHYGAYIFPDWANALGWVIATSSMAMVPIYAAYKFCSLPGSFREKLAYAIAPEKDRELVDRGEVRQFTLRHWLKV

[4] = target: 5-hydroxytryptamine receptor 5A (Homo sapiens) (UniProt P47898); experiment: Inhibition of human 5-HT5a at 10 uM relative to control
Chain of 5-hydroxytryptamine receptor 5A (Homo sapiens) (P47898 whole entry): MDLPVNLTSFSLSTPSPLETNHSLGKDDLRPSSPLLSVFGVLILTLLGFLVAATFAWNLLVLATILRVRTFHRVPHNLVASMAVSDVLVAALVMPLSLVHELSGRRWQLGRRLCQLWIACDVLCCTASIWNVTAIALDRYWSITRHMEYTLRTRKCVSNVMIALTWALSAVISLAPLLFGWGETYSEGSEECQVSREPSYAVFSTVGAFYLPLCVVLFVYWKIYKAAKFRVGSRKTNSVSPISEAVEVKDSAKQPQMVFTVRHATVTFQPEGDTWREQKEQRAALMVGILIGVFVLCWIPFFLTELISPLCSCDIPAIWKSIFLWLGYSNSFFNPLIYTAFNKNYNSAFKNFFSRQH

[5] = target: T1, 5-hydroxytryptamine receptor 1A (Homo sapiens) (UniProt P08908); experiment: Inhibition of human 5-HT1A receptor expressed in stable […] cells at 10 uM relative to control; format: cell-based; details: HEK293T
T1 sequence (whole entry): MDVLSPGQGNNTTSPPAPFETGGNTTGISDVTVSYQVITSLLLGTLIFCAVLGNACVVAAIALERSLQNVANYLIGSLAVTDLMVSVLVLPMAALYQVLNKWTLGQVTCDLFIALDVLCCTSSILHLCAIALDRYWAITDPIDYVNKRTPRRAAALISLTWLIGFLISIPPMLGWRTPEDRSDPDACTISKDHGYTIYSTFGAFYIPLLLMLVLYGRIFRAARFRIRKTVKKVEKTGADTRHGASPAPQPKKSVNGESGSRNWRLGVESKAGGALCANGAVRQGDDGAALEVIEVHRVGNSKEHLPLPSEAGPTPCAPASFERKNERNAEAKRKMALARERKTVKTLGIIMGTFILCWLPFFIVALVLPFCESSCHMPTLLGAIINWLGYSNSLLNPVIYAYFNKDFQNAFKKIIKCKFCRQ

[6] = organism: Rattus norvegicus; experiment: Inhibition of Rat GABAA at 10 uM in the presence of PBR relative to control
[7] = target: Nociceptin receptor (Homo sapiens) (UniProt P41146); experiment: Inhibition of human Nociceptin receptor at 10 uM relative to control
[8] = target: Kappa-type opioid receptor (Homo sapiens) (UniProt P41145); experiment: Inhibition of human kappa opioid receptor expressed in stable HEK cells at 10 uM relative to control; format: cell-based
Chain of Kappa-type opioid receptor (Homo sapiens) (P41145 whole entry): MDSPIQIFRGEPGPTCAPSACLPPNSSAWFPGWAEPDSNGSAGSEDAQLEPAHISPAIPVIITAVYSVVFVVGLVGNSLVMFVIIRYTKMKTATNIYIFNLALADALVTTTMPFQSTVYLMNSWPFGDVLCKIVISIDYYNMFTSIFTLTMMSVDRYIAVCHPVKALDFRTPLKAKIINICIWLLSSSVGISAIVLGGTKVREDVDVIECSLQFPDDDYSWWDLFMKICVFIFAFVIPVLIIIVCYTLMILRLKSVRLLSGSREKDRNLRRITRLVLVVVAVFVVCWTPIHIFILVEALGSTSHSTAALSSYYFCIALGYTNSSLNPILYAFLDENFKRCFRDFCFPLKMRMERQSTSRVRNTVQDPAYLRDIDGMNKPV

[9] = target: Adenosine receptor A1 (Homo sapiens) (UniProt P30542); experiment: Inhibition of human Adenosine receptor A1 at 10 uM relative to control
Chain of Adenosine receptor A1 (Homo sapiens) (P30542 whole entry): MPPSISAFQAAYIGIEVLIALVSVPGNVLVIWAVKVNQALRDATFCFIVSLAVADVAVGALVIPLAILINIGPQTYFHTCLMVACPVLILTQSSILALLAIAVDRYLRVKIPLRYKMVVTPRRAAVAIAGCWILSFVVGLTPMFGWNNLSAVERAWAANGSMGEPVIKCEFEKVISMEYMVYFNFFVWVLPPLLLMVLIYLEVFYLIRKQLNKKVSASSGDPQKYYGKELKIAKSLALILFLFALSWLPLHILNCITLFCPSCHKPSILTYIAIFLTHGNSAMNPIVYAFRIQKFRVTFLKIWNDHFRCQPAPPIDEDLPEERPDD

[10] = target: Melanocortin receptor 4 (Homo sapiens) (UniProt P32245); experiment: Inhibition of human Melanocortin receptor 4 at 10 uM relative to control
[11] = target: Sodium-dependent serotonin transporter (Homo sapiens) (UniProt P31645); experiment: Inhibition of human 5-HT transporter at 10 uM relative to control
[12] = organism: Homo sapiens; experiment: Inhibition of human Sodium channel site 2 at 10 uM relative to control
[13] = target: B2 bradykinin receptor (Homo sapiens) (UniProt P30411); experiment: Inhibition of human BK-2 receptor at 10 uM relative to control
[14] = target: 5-hydroxytryptamine receptor 6 (Homo sapiens) (UniProt P50406); experiment: Inhibition of human 5-HT6 at 10 uM relative to control
Chain of 5-hydroxytryptamine receptor 6 (Homo sapiens) (P50406 whole entry): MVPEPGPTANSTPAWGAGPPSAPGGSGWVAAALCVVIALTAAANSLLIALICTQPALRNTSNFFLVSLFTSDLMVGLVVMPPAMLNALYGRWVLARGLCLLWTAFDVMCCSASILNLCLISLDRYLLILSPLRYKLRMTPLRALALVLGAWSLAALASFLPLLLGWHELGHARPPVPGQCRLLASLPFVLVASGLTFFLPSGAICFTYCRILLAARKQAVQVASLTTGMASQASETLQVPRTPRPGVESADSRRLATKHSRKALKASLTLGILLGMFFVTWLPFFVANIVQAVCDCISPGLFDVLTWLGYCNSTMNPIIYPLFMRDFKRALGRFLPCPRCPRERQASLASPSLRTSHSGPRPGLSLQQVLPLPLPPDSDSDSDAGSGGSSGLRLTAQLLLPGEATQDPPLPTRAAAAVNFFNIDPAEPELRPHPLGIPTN

[15] = target: 5-hydroxytryptamine receptor 7 (Homo sapiens) (UniProt P34969); experiment: Inhibition of human 5-HT7 at 10 uM relative to control
[16] = target: C-X-C chemokine receptor type 2 (Homo sapiens) (UniProt P25025); experiment: Inhibition of human CXCR2 at 10 uM relative to control
Chain of C-X-C chemokine receptor type 2 (Homo sapiens) (P25025 whole entry): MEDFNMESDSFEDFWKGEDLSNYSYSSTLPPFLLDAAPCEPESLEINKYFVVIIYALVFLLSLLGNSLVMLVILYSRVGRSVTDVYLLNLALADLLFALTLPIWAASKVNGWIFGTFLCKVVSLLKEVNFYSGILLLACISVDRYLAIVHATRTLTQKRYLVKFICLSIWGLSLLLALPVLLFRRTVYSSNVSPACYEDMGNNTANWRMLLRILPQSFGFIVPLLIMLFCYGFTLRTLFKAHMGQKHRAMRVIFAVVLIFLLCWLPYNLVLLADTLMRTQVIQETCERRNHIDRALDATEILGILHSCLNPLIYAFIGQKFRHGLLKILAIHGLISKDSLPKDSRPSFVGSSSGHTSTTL

[17] = target: Kappa-type opioid receptor (Homo sapiens) (UniProt P41145); experiment: Inhibition of human Kappa-type opioid receptor at 10 uM relative to control
[18] = target: Galanin receptor type 2 (Homo sapiens) (UniProt O43603); experiment: Inhibition of human GAL2 at 10 uM relative to control
Chain of Galanin receptor type 2 (Homo sapiens) (O43603 whole entry): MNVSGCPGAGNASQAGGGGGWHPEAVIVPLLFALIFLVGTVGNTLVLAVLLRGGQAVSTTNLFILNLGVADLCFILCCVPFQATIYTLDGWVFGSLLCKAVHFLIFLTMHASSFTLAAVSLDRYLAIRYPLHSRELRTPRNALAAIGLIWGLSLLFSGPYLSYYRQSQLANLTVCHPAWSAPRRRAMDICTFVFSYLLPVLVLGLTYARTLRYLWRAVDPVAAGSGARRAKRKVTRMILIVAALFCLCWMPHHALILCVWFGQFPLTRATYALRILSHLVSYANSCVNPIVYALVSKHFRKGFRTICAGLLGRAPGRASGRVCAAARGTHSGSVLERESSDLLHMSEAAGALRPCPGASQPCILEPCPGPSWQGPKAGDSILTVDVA

[19] = target: T2, Muscarinic acetylcholine receptor M2 (Homo sapiens) (UniProt P08172); experiment: Inhibition of human Muscarinic acetylcholine receptor M2 at 10 uM relative to control
T2 sequence (whole entry): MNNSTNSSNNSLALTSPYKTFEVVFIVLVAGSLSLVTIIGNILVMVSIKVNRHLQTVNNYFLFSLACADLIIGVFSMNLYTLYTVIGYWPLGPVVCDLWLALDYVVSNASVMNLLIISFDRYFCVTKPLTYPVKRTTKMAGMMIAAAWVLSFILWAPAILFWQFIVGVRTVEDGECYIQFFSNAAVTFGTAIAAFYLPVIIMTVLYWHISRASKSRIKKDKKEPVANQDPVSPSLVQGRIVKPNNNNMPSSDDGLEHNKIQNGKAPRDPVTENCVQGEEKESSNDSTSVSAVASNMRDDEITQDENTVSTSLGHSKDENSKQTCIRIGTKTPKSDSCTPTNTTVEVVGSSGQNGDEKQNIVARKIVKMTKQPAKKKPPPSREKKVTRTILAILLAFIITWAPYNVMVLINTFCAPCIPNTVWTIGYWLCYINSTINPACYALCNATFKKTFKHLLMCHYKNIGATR

[20] = target: 5-hydroxytryptamine receptor 1B (Homo sapiens) (UniProt P28222); experiment: Inhibition of human 5-HT1B expressed in stable HEK cells at 10 uM relative to control; format: cell-based
Chain of 5-hydroxytryptamine receptor 1B (Homo sapiens) (P28222 whole entry): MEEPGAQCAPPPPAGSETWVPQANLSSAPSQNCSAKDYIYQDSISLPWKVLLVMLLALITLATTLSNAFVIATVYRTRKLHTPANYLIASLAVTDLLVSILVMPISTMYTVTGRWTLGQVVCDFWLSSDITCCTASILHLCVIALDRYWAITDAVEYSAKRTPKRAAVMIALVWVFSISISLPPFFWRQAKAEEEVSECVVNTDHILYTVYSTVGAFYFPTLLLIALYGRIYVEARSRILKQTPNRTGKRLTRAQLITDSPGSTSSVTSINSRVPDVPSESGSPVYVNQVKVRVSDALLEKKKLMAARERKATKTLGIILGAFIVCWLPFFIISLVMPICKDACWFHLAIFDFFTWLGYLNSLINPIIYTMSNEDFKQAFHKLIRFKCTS

[21] = target: Alpha-1A adrenergic receptor (Homo sapiens) (UniProt P35348); experiment: Inhibition of human Alpha-1A adrenergic receptor at 10 uM relative to control
[22] = target: Beta-1 adrenergic receptor (Homo sapiens) (UniProt P08588); experiment: Inhibition of human Beta-1 adrenergic receptor expressed in Cricetulus griseus Flp-In-CHO cells at 10 uM relative to control; format: cell-based
[23] = system: Embryonic stem cell; experiment: Antiproliferative activity against mouse Embryonic stem cell assessed as reduction in H4K20me3 at 10 uM incubated for 3 days by immunofluorescence analysis; format: functional, cell-based; details: time 3.0 day
[24] = target: Delta-type opioid receptor (Homo sapiens) (UniProt P41143); experiment: Inhibition of human Delta-type opioid receptor at 10 uM relative to control
Chain of Delta-type opioid receptor (Homo sapiens) (P41143 whole entry): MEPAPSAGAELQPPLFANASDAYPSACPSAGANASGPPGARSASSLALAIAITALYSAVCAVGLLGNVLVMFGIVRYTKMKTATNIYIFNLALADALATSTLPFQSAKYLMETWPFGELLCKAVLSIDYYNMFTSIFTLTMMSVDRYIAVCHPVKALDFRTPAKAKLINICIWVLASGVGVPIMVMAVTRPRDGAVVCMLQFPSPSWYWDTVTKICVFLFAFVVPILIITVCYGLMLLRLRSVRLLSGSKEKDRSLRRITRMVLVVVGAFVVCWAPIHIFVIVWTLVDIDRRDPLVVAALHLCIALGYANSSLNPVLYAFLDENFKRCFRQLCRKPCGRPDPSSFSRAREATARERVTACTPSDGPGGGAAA

[25] = target: Delta-type opioid receptor (Homo sapiens) (UniProt P41143); experiment: Inhibition of human Delta-type opioid receptor expressed in stable HEK cells at 10 uM relative to control; format: cell-based
[26] = target: Vasopressin V1a receptor (Homo sapiens) (UniProt P37288); experiment: Inhibition of human AVPR V1a at 10 uM relative to control
Chain of Vasopressin V1a receptor (Homo sapiens) (P37288 whole entry, looked up): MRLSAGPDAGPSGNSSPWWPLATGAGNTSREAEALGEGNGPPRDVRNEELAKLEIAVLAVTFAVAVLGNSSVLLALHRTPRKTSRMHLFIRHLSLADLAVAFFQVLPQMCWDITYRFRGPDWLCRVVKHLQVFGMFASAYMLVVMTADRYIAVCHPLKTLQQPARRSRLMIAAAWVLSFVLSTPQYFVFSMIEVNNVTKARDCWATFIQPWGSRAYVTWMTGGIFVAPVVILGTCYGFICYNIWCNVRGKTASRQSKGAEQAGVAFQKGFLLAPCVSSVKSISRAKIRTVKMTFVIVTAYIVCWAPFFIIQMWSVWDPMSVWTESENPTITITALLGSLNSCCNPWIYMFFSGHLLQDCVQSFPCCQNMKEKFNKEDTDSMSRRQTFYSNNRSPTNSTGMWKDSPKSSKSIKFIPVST

[27] = target: Alpha-2C adrenergic receptor (Homo sapiens) (UniProt P18825); experiment: Inhibition of human Alpha-2C adrenergic receptor in stable Canis lupus familiaris MDCK cells at 10 uM relative to control; format: cell-based
[28] = target: Muscarinic acetylcholine receptor M4 (Homo sapiens) (UniProt P08173); experiment: Inhibition of human Muscarinic acetylcholine receptor M4 expressed in stable Cricetulus griseus CHO cells at 10 uM relative to control; format: cell-based
Chain of Muscarinic acetylcholine receptor M4 (Homo sapiens) (P08173 whole entry): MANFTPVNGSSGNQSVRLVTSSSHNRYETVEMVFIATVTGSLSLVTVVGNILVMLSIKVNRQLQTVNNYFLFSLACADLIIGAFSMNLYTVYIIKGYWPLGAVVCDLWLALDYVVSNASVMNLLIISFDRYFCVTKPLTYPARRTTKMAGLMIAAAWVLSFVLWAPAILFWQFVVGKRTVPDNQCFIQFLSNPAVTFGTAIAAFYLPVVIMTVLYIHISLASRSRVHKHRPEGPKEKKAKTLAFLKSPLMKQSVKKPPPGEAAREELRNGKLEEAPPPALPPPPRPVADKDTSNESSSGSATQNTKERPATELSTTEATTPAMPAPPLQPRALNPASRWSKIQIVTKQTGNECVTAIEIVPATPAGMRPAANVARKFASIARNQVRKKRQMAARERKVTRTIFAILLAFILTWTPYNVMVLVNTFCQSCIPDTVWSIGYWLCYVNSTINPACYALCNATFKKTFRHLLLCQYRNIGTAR

[29] = target: Beta-2 adrenergic receptor (Homo sapiens) (UniProt P07550); experiment: Inhibition of human Beta-2 adrenergic receptor expressed in human Flp-In-293 cells at 10 uM relative to control; format: cell-based
Chain of Beta-2 adrenergic receptor (Homo sapiens) (P07550 whole entry, looked up): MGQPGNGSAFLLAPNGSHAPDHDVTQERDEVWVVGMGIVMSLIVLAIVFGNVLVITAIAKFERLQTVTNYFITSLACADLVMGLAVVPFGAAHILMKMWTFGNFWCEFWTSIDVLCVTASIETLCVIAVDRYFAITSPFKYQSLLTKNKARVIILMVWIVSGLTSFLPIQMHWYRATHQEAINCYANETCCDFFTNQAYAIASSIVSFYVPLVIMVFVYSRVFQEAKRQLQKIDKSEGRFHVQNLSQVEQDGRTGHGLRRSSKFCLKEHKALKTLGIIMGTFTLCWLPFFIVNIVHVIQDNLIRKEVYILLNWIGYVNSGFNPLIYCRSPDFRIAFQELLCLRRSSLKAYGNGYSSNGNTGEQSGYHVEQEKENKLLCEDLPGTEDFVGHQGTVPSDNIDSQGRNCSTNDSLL

[30] = organism: Rattus norvegicus; experiment: Inhibition of Rat Somatostatin at 10 uM relative to control
[31] = organism: Rattus norvegicus; experiment: Inhibition of Rat GABAA at 10 uM in the presence of 3H and BZP relative to control

| SMILES | inhibition [1] | inhibition [2] | inhibition [3] | inhibition [4] | inhibition [5] | inhibition [6] | inhibition [7] | inhibition [8] | inhibition [9] | inhibition [10] | inhibition [11] | inhibition [12] | inhibition [13] | inhibition [14] | inhibition [15] | inhibition [16] | inhibition [17] | inhibition [18] | inhibition [19] | inhibition [20] | also measured |
| --- | --- | --- | --- | --- | --- | --- | --- | --- | --- | --- | --- | --- | --- | --- | --- | --- | --- | --- | --- | --- | --- |
| O=C(c1nnc(NC2CCCC2)c2cc(Cl)c(Cl)cc12)N1CCC(O)CC1 | 39% | 18% | -1% | 2% | 12% | 65% | 0% | 54% | 55% | -1% | -7% | -5% | -4% | -4% | -3% | 8% | 45% | -8% | -2% | 5% | inhibition [21]: -9%; inhibition [22]: -4%; Activity [23]: inactive; inhibition [24]: 6%; inhibition [25]: 8%; inhibition [26]: 96%; inhibition [27]: 4%; inhibition [28]: -7%; inhibition [29]: 17%; inhibition [30]: 5%; inhibition [31]: 29% |
| Clc1cc2c(NC3CCCC3)nnc(-c3ccncc3)c2cc1Cl | -6% | 11% | 14% | 9% | 6% | 1% | 13% | 26% | 98% | 14% | 5% | 17% | 1% | -1% | 6% | -1% | 62% | 3% | 23% | 4% | inhibition [21]: -3%; inhibition [22]: 32%; Activity [23]: Active; inhibition [24]: 51%; inhibition [25]: 11%; inhibition [26]: 4%; inhibition [27]: 0%; inhibition [28]: -3%; inhibition [29]: 20%; inhibition [30]: 2%; inhibition [31]: 5% |
